Source: EP0623608B1, “BENZOPYRAN DERIVATIVE, PRODUCTION THEREOF, AND PHARMACEUTICAL PREPARATION CONTAINING THE SAME AS ACTIVE INGREDIENT” (TEIJIN LIMITED, priority 1992, dated 1993)

Target: ACAT enzyme
Experiment: Measurement of ACAT enzyme inhibitory activity of rabbit small intestinal microsomes
Type: biochemical
Settings: rabbit small intestinal mucosa microsome fraction 0.5 mg/ml, 43 µM oleoyl CoA containing [1-14C]oleoyl CoA, 37°C for 10 minutes
Protocol: Measurement of ACAT enzyme inhibitory activity (measurement of ACAT enzyme inhibitory activity of rabbit small intestinal microsomes
Rabbit small intestinal mucosa microsome was prepared and the ACAT enzyme activity was measured by the method of Salone and Field (reference: Biochemica et Biophysica, vol. 712, p. 557 (1982)) with a slight modification.
Using a 40 mM phosphate buffer containing 30 mM EDTA, 50 mM KCl, and 1.0M sucrose and having a pH of 7.4 (buffer A), rabbit small intestinal mucosa was homogenized. This was centrifuged at 10,000 x g and 4°C for 30 minutes to provide a supernatant. The supernatant was further centrifuged at 105,000 x g and 4°C for 1 hour to provide a precipitate. The precipitate was resuspended in the buffer A and used as the microsome fraction.
To the buffer A containing 43 µM bovine serum albumin and 0.5 mg/ml microsome fraction was added various concentrations of each specimen compound (compounds obtained in Examples 1, 3 to 5, and 7 to 14) in dimethylsulfoxide in amounts of 1% v/v. The mixture was heated at 37°C for 5 minutes. […]
0.111 kBq of [^3H] cholesteryl oleate and IN hydrochloric acid were added, and the mixture was stirred. The cholesteryl oleate extracted into the chloroform layer was isolated by a thin layer chromatography, and the radioactivity was measured as the ACAT activity.

CCCCCCCCCCOc1ccc2c(=O)ccoc2c1NC(=O)C(C)(C)C [Example 8, N-(7-decyloxyl-4-oxo-4H-1-benzopyran8-yl)-2,2-dimethylpropanamide]
IC50: 0.13 µM
